Assay results reported in patent US7264935B2, “Potassium-dependent sodium-calcium exchanger” (Astellas Pharma Inc., priority 2002, dated 2007).

Key:
Type in all cases: cell-based
[1] = target: T1, novel potassium-dependent sodium-calcium exchanger consisting of the amino acid sequence of SEQ ID NO: 4 (Homo sapiens, UniProt Q8NFF2); assay: 45Ca uptake screening for inhibition of potassium-dependent sodium-calcium exchange activity in stable-expression Dede cells (SEQ ID NO: 4); details: exchanger of SEQ ID NO: 4; conditions of Example 6
T1 construct: expressed in transfected cells
T1 sequence (Q8NFF2 39-603 isoform Q8NFF2-3): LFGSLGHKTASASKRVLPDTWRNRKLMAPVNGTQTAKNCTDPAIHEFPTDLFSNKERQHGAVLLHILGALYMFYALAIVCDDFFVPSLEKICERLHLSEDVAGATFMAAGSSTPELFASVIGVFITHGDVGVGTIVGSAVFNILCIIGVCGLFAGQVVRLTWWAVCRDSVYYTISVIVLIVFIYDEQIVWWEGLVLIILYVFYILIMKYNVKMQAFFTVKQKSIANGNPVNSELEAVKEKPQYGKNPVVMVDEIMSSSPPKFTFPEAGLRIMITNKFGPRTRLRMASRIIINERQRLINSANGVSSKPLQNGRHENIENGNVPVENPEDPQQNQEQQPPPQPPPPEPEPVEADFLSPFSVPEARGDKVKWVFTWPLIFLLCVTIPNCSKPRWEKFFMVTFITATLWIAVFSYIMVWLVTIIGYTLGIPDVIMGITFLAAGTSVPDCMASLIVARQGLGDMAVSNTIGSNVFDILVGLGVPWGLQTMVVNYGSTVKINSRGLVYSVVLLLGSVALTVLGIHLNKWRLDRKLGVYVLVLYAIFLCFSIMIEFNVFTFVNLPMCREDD
Description: (§1) Sodium was incorporated into cells by changing the medium to an extracellular solution containing monensin [i.e., a solution containing 0.01 mmol/L monensin, 1 mmol/L ouabain, 146 mmol/L NaCl, 4 mmol/L KCl, 0.1 mmol/L CaCl2, 2 mmol/L MgCl2, 10 mmol/L glucose, 0.1% bovine serum albumin, and 10 mmol/L HEPES-Tris (pH=7.4)] and incubating the cells at 37° C. for 30 minutes. […]
(§2) The treated cells were washed with a washing solution containing 120 mmol/L choline chloride, 10 mmol/L LaCl3, and 10 mmol/L HEPES-Tris (pH=7.4) to remove calcium ions not incorporated, and then an intracellular calcium ion radioactivity was measured and analyzed by a liquid scintillation counter. In the HEK293 cells, Dede cells, or CHO-dhfr^− cells expressing the polypeptide consisting of the amino acid sequence of SEQ ID NO: 2 or 4, a higher radioactivity of approximately two times that obtained in the case of the extracellular solution A was measured when using the extracellular solution B (extracellular solution in which sodium was replaced with choline). Further, higher radioactivities of approximately five times and approximately ten times that obtained in the case of the extracellular solution A were measured when using the extracellular solutions C and D (extracellular solution containing potassium), respectively. […]

[2] = tested on: human peripheral polymorphonuclear leukocytes (PMNs); assay: fMLP-stimulated migration test of PMNs in Transwell chemotaxis chamber; details: for Number of migrating cells (relative value): 100 nmol/L fMLP, 37° C., 1 hour, DMSO = 100, average ± SD of three experiments; for migration of PMNs (result in words): 10, 30 and 100 μmol/L, fMLP-stimulated
Description: The compounds obtained in Example 6 were evaluated using human peripheral polymorphonuclear leukocytes (PMNs). A blood sample was obtained by collecting blood from a healthy adult. A ficoll solution for separation (mono-poly resolving medium; Dainippon Pharmaceutical) was poured into each centrifuge tube, and a fresh blood component was laid on the ficoll solution. Centrifugation was carried out at 400×g at room temperature for 30 minutes to separate the upper layer (monocytes), the intermediate layer (PMNs), and the precipitate (erythrocytes). Each layer was collected in such a way that they were not mixed with each other, suspended in a phosphate buffered saline (PBS), and recentrifuged. Each collected layer was suspended in an RPMI1640 medium containing 0.2% bovine serum albumin (BSA), and used in the following experiment after counting the number of cells. A portion of the resulting PMN component was stained by a hematoxylin and eosin stain to confirm that neutrophils (approximately 95%) and eosinophils (approximately 5%) were contained.
A migration test was carried out using a 24-well disposable chemotaxis chamber Transwell 3 μm; Corning). Each test solution in which compound A or B (final concentration=10 μmol/L, 30 μmol/L, and 100 μmol/L) were contained in a medium (0.2% BSA, RPMI1640 medium) containing 100 nmol/L formylmethionyl-leucinyl-phenylalanine (fMLP) was prepared, and 1 mL of each test solution was added to each of the lower wells. The collected PMNs were added to each of the upper wells (2.0×10^6 cells/well; 0.2 mL) and incubated at 37° C. for 1 hour. The numbers of cells which migrated to the lower wells were counted by a hemacytometer. The test was independently repeated three times.
Each value shown in Table 1 is a relative value when the value obtained in the case of using DMSO instead of the test compounds is regarded as 100. Further, each value shown in Table 1 is an average and a standard deviation (SD) on the basis of three independent experiments.

[3] = target: T2, novel potassium-dependent sodium-calcium exchanger consisting of the amino acid sequence of SEQ ID NO: 2 (Homo sapiens, UniProt Q8NFF2); assay: 45Ca uptake screening for inhibition of potassium-dependent sodium-calcium exchange activity in stable-expression Dede cells (SEQ ID NO: 2); details: exchanger of SEQ ID NO: 2; conditions of Example 6
T2 construct: expressed in transfected cells
T2 sequence (Q8NFF2 39-622): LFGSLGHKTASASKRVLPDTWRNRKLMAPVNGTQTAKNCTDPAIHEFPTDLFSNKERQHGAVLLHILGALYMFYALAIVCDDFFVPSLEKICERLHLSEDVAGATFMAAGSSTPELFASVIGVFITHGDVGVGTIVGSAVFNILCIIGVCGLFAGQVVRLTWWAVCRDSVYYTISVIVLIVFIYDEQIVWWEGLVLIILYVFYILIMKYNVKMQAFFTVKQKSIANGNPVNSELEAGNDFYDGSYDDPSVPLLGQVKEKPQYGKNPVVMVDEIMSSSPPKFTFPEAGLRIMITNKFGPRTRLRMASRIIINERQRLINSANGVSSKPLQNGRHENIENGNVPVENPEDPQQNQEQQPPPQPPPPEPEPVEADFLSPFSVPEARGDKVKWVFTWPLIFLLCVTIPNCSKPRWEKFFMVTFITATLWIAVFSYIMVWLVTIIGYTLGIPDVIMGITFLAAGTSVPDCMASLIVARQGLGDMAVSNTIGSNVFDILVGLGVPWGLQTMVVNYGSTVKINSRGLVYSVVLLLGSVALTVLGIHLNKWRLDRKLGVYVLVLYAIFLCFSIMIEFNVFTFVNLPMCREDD
Description: as §1, §2

IC50 [1] | IC50 [3] | Structure (SMILES) | Number of migrating cells (relative value) ([2]; 10 μmol/L compound) | Number of migrating cells (relative value) ([2]; 30 μmol/L compound) | Number of migrating cells (relative value) ([2]; 100 μmol/L compound) | migration of PMNs (result in words) [2]
58.9 µM | 20.2 µM | N/C(=N\C(=O)c1nc(Cl)c(N)nc1N)NCc1ccc(Cl)c(Cl)c1 [compound B, 3′,4′-dichlorobenzamil] | 100.68 ± 7.27 | 72.90 ± 15.85 | 44.58 ± 32.82 | inhibited the migration of PMNs dose-dependently
35 µM | 15.8 µM | CS(=O)(=O)O.N=C(N)SCCc1ccc(OCc2ccc([N+](=O)[O-])cc2)cc1 [compound A, 2-[2-[4-(4-nitrobenzyloxy)phenyl]ethyl]isothiourea methanesulfonate] | 78.18 ± 25.93 | 29.50 ± 26.16 | 16.84 ± 10.78 | inhibited the migration of PMNs dose-dependently
